Test results taken from paper PMC6791383, “A side-by-side evaluation of [^18F]FDOPA enantiomers for non-invasive detection of neuroendocrine tumors by positron emission tomography” (Oncotarget, 2019).

Experiments:
PC12 cells = experiment: In vitro uptake (binding) assay in PC12 cells; format: cell-based; conditions: 30mins incubation, 1 million cells
Description: Both [^18F]FDOPA enantiomers were initially assessed in vitro in all NET cells.
In vitro binding assays were carried out, in triplicate, in PBS with 0.5% FBS, for 30mins at ambient temperatures using 1 million cells and repeated three times. Blocking studies were carried out using 10meq of the commercial LAT1 inhibitor, 2-Aminobicyclo[2.2.1]heptane-2-carboxylic acid (TOCRIS, MN, USA). Following incubation with each tracer, cells were rinsed three times with cold PBS prior to being counted on an automated gamma counter (1282 Compugamma CS; Pharmacia/LKBNuclear, Inc.) along with external standards. Obtained counts were converted into percentage incubated dose per million cells based on normalization to external standards. Experiments were performed in triplicate and repeated three times.

COLO-320 xenografts [1] = experiment: In vivo PET-CT quantitative image analysis, COLO-320 xenografts; conditions: COLO-320 tumors, NSG mice, 9MBq
Description: (§1) All animal studies were carried out according to regulations set forth and approved by the Johns Hopkins Animal Care and Use Committee. Female, 6- to 8-weeks-old immunodeficient NOD scid gamma (NSG) mice were subcutaneously inoculated with 1 million PC12, STC-1 or COLO-320 cells in […] of Hank’s balanced salt solution in the top flank. Tumors of 4–6 mm in diameter (typically 14-21 days post inoculation) were utilized for in vivo imaging or ex vivo biodistribution studies.
Mice (n=4) were injected with 9MBq (250μCi) of each tracer in 150μL of saline intravenously and anesthetized with 3% isoflurane prior to being placed on the scanner bed. Mice were kept warm with an external light source and maintained at 1% isoflurane levels while being scanned. PET imaging (2 beds; 10 min per bed) was carried out using an ARGUS small-animal PET/CT scanner (Sedecal). A CT scan (512 projections) was obtained at the end of each PET scan for anatomical co-registration. For in vivo blocking experiments, mice were injected with 10meq of LAT1 inhibitor. PET data were reconstructed using the 2-dimensional ordered subsets-expectation maximization algorithm (2D-OSEM) and corrected for dead time and radioactive decay. Data visualization and image generation were carried out using Amira 2019.1 (ThermoFisher Scientific).
Quantitative in vivo image analysis was carried out in AMIDE (SourceForge) 1.0.4 utilizing ellipsoid region-of-interest volume integrations with 3 slices entailing a depth of 1.9 mm per slice. The %ID per cc values were calculated based on a calibration factor obtained from a phantom (known radioactive quantity in a known volume).

COLO-320 xenografts [2] = experiment: Ex vivo biodistribution in NSG mice bearing COLO-320 xenografts; conditions: for Biodistribution, Bladder / Biodistribution, Blood / Biodistribution, Bone / Biodistribution, Brain / Biodistribution, Fat / Biodistribution, Heart / Biodistribution, Kidneys / Biodistribution, Liver / Biodistribution, Lungs / Biodistribution, Muscle / Biodistribution, Pancreas / Biodistribution, Small Intestines / Biodistribution, Spleen / Biodistribution, Stomach / Biodistribution, Tumor: COLO-320 xenograft NSG mice, 1.5MBq i.v.
Description: as §1
(§2) Mice (n=5 per group) were intravenously injected with 1.5MBq (40μCi) of each tracer in 150μL of saline. Ex vivo biodistribution studies were performed at 30min and 120min time points after tracer administration. Blood, liver, spleen, heart, lungs, kidneys, small intestines, stomach, muscle, fat, bone, bladder, brain and tumor tissues were retrieved, weighed, and counted in an automated gamma counter (1282 Compugamma CS). Percentage injected dose per gram (%ID/g) values were calculated based on normalization to external standards, counted in triplicate, and accounted for signal-decay correction.

PC12 xenografts = experiment: Ex vivo biodistribution in NSG mice bearing PC12 xenografts; conditions: for Biodistribution, Bladder / Biodistribution, Blood / Biodistribution, Bone / Biodistribution, Brain / Biodistribution, Fat / Biodistribution, Heart / Biodistribution, Kidneys / Biodistribution, Liver / Biodistribution, Lungs / Biodistribution, Muscle / Biodistribution, Pancreas / Biodistribution, Small Intestines / Biodistribution, Spleen / Biodistribution, Stomach / Biodistribution, Tumor: PC12 xenograft NSG mice, 1.5MBq i.v.
Description: as §1, §2

[3] = tested on: NET xenografts (STC-1, PC12, COLO-320); experiment: Ex vivo biodistribution, across all NET mouse models; format: in vivo, mice; conditions: for brain accumulation, average in all NET mice: average over STC-1, COLO-320 and PC12 mice; for retention in small intestines, fold lower than L-[^18F]FDOPA: all NET models
Description: as §1, §2

With N[C@H](Cc1cc(O)c(O)cc1[18F])C(=O)O [D-[^18F]FDOPA, 3,4-dihydroxy-6-[^18F]fluoro-D-phenylalanine] the in vitro uptake (PC12 cells) was 2.97±0.24 % (incubated dose/million cells), the “tumor uptake, quantitative PET image analysis” value (COLO-320 xenografts [1]; 30min post i.v. injection) was 7.20±0.35 %ID/cc and the “tumor uptake, quantitative PET image analysis” value (COLO-320 xenografts [1]; 120min post i.v. injection) was 6.93±0.80 %ID/cc. The “pancreatic retention, fold lower compared to L-[^18F]FDOPA” value (COLO-320 xenografts [2]; COLO-320 mice, 120min p.i.) was 12 fold, the “Biodistribution, Bladder” value (COLO-320 xenografts [2]; 30min p.i.) was 3.81 %ID/g and the “Biodistribution, Blood” value (COLO-320 xenografts [2]; 30min p.i.) was 2.58 %ID/g. For the same compound, the “Biodistribution, Bone” value (COLO-320 xenografts [2]; 30min p.i.) was 3.28 %ID/g, the “Biodistribution, Brain” value (COLO-320 xenografts [2]; 30min p.i.) was 0.19 %ID/g and the “Biodistribution, Fat” value (COLO-320 xenografts [2]; 30min p.i.) was 0.31 %ID/g. For the same compound, the “Biodistribution, Heart” value (COLO-320 xenografts [2]; 30min p.i.) was 1.57 %ID/g, the “Biodistribution, Kidneys” value (COLO-320 xenografts [2]; 30min p.i.) was 7.05 %ID/g and the “Biodistribution, Liver” value (COLO-320 xenografts [2]; 30min p.i.) was 2.65 %ID/g. For the same compound, the “Biodistribution, Lungs” value (COLO-320 xenografts [2]; 30min p.i.) was 3.60 %ID/g, the “Biodistribution, Muscle” value (COLO-320 xenografts [2]; 30min p.i.) was 0.89 %ID/g and the “Biodistribution, Pancreas” value (COLO-320 xenografts [2]; 30min p.i.) was 34.93 %ID/g. The “Biodistribution, Small Intestines” value (COLO-320 xenografts [2]; 30min p.i.) was 3.89 %ID/g, the “Biodistribution, Spleen” value (COLO-320 xenografts [2]; 30min p.i.) was 4.77 %ID/g and the “Biodistribution, Stomach” value (COLO-320 xenografts [2]; 30min p.i.) was 2.48 %ID/g. The “Biodistribution, Tumor” value (COLO-320 xenografts [2]; 30min p.i.) was 3.61 %ID/g, the “Biodistribution, Bladder” value (COLO-320 xenografts [2]; 120min p.i.) was 3.68 %ID/g and the “Biodistribution, Blood” value (COLO-320 xenografts [2]; 120min p.i.) was 0.51 %ID/g. For the same compound, the “Biodistribution, Bone” value (COLO-320 xenografts [2]; 120min p.i.) was 4.10 %ID/g, the “Biodistribution, Brain” value (COLO-320 xenografts [2]; 120min p.i.) was 0.19 %ID/g and the “Biodistribution, Fat” value (COLO-320 xenografts [2]; 120min p.i.) was 0.29 %ID/g. The “Biodistribution, Heart” value (COLO-320 xenografts [2]; 120min p.i.) was 0.80 %ID/g, the “Biodistribution, Kidneys” value (COLO-320 xenografts [2]; 120min p.i.) was 1.44 %ID/g and the “Biodistribution, Liver” value (COLO-320 xenografts [2]; 120min p.i.) was 0.54 %ID/g. For the same compound, the “Biodistribution, Lungs” value (COLO-320 xenografts [2]; 120min p.i.) was 1.52 %ID/g, the “Biodistribution, Muscle” value (COLO-320 xenografts [2]; 120min p.i.) was 1.12 %ID/g and the “Biodistribution, Pancreas” value (COLO-320 xenografts [2]; 120min p.i.) was 3.12 %ID/g. For the same compound, the “Biodistribution, Small Intestines” value (COLO-320 xenografts [2]; 120min p.i.) was 1.46 %ID/g, the “Biodistribution, Spleen” value (COLO-320 xenografts [2]; 120min p.i.) was 1.67 %ID/g and the “Biodistribution, Stomach” value (COLO-320 xenografts [2]; 120min p.i.) was 0.99 %ID/g. The “Biodistribution, Tumor” value (COLO-320 xenografts [2]; 120min p.i.) was 3.72 %ID/g, the “pancreatic retention, fold lower compared to L-[^18F]FDOPA” value (PC12 xenografts; PC12 mice, 120min p.i.) was about 11 fold and the “Biodistribution, Bladder” value (PC12 xenografts; 30min p.i.) was 3.96 %ID/g. For the same compound, the “Biodistribution, Blood” value (PC12 xenografts; 30min p.i.) was 2.52 %ID/g, the “Biodistribution, Bone” value (PC12 xenografts; 30min p.i.) was 2.71 %ID/g and the “Biodistribution, Brain” value (PC12 xenografts; 30min p.i.) was 0.19 %ID/g. For the same compound, the “Biodistribution, Fat” value (PC12 xenografts; 30min p.i.) was 0.28 %ID/g, the “Biodistribution, Heart” value (PC12 xenografts; 30min p.i.) was 1.28 %ID/g and the “Biodistribution, Kidneys” value (PC12 xenografts; 30min p.i.) was 5.30 %ID/g. The “Biodistribution, Liver” value (PC12 xenografts; 30min p.i.) was 3.05 %ID/g, the “Biodistribution, Lungs” value (PC12 xenografts; 30min p.i.) was 3.53 %ID/g and the “Biodistribution, Muscle” value (PC12 xenografts; 30min p.i.) was 0.79 %ID/g. For the same compound, the “Biodistribution, Pancreas” value (PC12 xenografts; 30min p.i.) was 28.22 %ID/g, the “Biodistribution, Small Intestines” value (PC12 xenografts; 30min p.i.) was 3.76 %ID/g and the “Biodistribution, Spleen” value (PC12 xenografts; 30min p.i.) was 3.99 %ID/g. For the same compound, the “Biodistribution, Stomach” value (PC12 xenografts; 30min p.i.) was 2.52 %ID/g, the “Biodistribution, Tumor” value (PC12 xenografts; 30min p.i.) was 2.96 %ID/g and the “Biodistribution, Bladder” value (PC12 xenografts; 120min p.i.) was 5.93 %ID/g. The “Biodistribution, Blood” value (PC12 xenografts; 120min p.i.) was 0.48 %ID/g, the “Biodistribution, Bone” value (PC12 xenografts; 120min p.i.) was 4.84 %ID/g and the “Biodistribution, Brain” value (PC12 xenografts; 120min p.i.) was 0.23 %ID/g. For the same compound, the “Biodistribution, Fat” value (PC12 xenografts; 120min p.i.) was 0.34 %ID/g, the “Biodistribution, Heart” value (PC12 xenografts; 120min p.i.) was 0.84 %ID/g and the “Biodistribution, Kidneys” value (PC12 xenografts; 120min p.i.) was 1.23 %ID/g. For the same compound, the “Biodistribution, Liver” value (PC12 xenografts; 120min p.i.) was 0.73 %ID/g, the “Biodistribution, Lungs” value (PC12 xenografts; 120min p.i.) was 2.04 %ID/g and the “Biodistribution, Muscle” value (PC12 xenografts; 120min p.i.) was 1.02 %ID/g. The “Biodistribution, Pancreas” value (PC12 xenografts; 120min p.i.) was 3.42 %ID/g, the “Biodistribution, Small Intestines” value (PC12 xenografts; 120min p.i.) was 1.90 %ID/g and the “Biodistribution, Spleen” value (PC12 xenografts; 120min p.i.) was 1.86 %ID/g. The “Biodistribution, Stomach” value (PC12 xenografts; 120min p.i.) was 1.36 %ID/g, the “Biodistribution, Tumor” value (PC12 xenografts; 120min p.i.) was 1.44 %ID/g and the “brain accumulation, average in all NET mice” value ([3]; 30min p.i.) was 0.31±0.05 %ID/g. For the same compound, the “brain accumulation, average in all NET mice” value ([3]; 120min p.i.) was 0.34±0.08 %ID/g, the “hepatic retention, fold lower than L-[^18F]FDOPA” value ([3]; NET models) was “up to 4 fold” and the “renal retention, fold lower than L-[^18F]FDOPA” value ([3]; NET models) was “up to 4 fold”. The “retention in small intestines, fold lower than L-[^18F]FDOPA” value ([3]; 30min) was “up to 4 fold” and the “retention in small intestines, fold lower than L-[^18F]FDOPA” value ([3]; 120min p.i.) was “up to 7 fold”.
